Data on 46 compounds can be found in patent US20250002476A1, “AZOLE COMPOUNDS FOR CONTROLLING INVERTEBRATE PESTS” (FMC Corporation, priority 2021, published 2025).

Common to all, as to type: in vivo
The test system of test [1] is Corn Planthopper (Peregrinus maidis (Ashmead)). In words: Test B: control of Corn Planthopper on sprayed corn plant. The following applies: 144 h, nymphs, 6 days; for mortality at 50 ppm: sprayed at 50 ppm; for mortality at 250 ppm: sprayed at 250 ppm; for mortality at 10 ppm: sprayed at 10 ppm. On the procedure: (§1) Test compounds were formulated using a solution containing 10% acetone, 90% water and 300 ppm Activator 90@ non-ionic surfactant (Loveland Products, Loveland, Colorado, USA). The formulated compounds were applied in 1 mL of liquid through an atomized nozzle positioned 1.27 cm (0.5 inches) above the top of each test unit. Test compounds were sprayed at the rates indicated, and each test was replicated three times.
For evaluating control of Corn Planthopper (Peregrinus maidis (Ashmead)) through contact and/or systemic means, the test unit consisted of a small open container with a 3-4-day-old corn (maize) plant inside. White sand was added to the top of the soil prior to application of the test compound.
Test compounds were formulated and sprayed at 250, 50 and 10 ppm. After spraying of the formulated test compound, the test units were allowed to dry for 1 h before they were post-infested with ˜15-20 nymphs (18-to-21-day-old). A black, screened cap was placed on the top of each test unit, and the test units were held for 6 days in a growth chamber at 22-24° C. and 50-70% relative humidity. Each test unit was then visually assessed for insect mortality.

Test [2] has as its system Green Peach Aphid (Myzus persicae (Sulzer)). In words: Test D: control of Green Peach Aphid on sprayed radish plant. The following applies: 144 h, pre-infested, 6 days; for mortality at 250 ppm: sprayed at 250 ppm; for mortality at 50 ppm: sprayed at 50 ppm. As to the method: as §1
For evaluating control of Green Peach Aphid (Myzus persicae (Sulzer)) through contact and/or systemic means, the test unit consisted of a small open container with a 12-15-day-old radish plant inside. Prior to compound application, each test unit was pre-infested by placing on a leaf of the test plant 30-40 aphids on a piece of leaf excised from a culture plant (cut-leaf method). The aphids moved onto the test plant as the leaf piece desiccated. After pre-infestation, the soil of the test unit was covered with a layer of sand.
Test compounds were formulated and sprayed at 250 and 50 ppm. After spraying of the formulated test compound, each test unit was allowed to dry for 1 hour and then a black, screened cap was placed on top. The test units were held for 6 days in a growth chamber at 19-21° C. and 50-70% relative humidity. Each test unit was then visually assessed for insect mortality.

The test system of test [3] is cotton melon aphid (Aphis gossypii (Glover)). As to the kind of experiment: Test E: control of cotton melon aphid on sprayed okra plant. The settings on record: 144 h, pre-infested, 6 days; for mortality at 50 ppm: sprayed at 50 ppm; for mortality at 250 ppm: sprayed at 250 ppm; for mortality at 10 ppm: sprayed at 10 ppm. As to the method: as §1
For evaluating control of cotton melon aphid (Aphis gossypii (Glover)) through contact and/or systemic means, the test unit consisted of a small open container with a 5-day-old okra plant inside. This was pre-infested with 30-40 insects on a piece of leaf according to the cut-leaf method, and the soil of the test unit was covered with a layer of sand.
Test compounds were formulated and sprayed at 250, 50, 10 and 2 ppm. After spraying, the test units were maintained in a growth chamber for 6 days at 19° C. and 70% relative humidity. Each test unit was then visually assessed for insect mortality.

Test [4] concerns silverleaf whitefly (Bemisia argentifolii (Bellows and Perring)). As to the kind of experiment: Test F: control of silverleaf whitefly on sprayed soybean plant. The settings on record: 288 h, sprayed at 250 ppm, pre-infested (oviposition), 12 days. On the procedure:
as §1
For evaluating control of silverleaf whitefly (Bemisia argentifolii (Bellows and Perring)) through contact and/or systemic means, each test unit consisted of a small open container with a 5-7 day old soybean plant inside. This was pre-infested by placing test units into cages containing adult whiteflies so that oviposition on the leaves could occur. The adults were removed from the plants with an air-blast nozzle, and the test units were capped. The test units were then stored 2 to 3 days before spraying.
Test compounds were formulated and sprayed at 250 and 50 ppm. After spraying, the test units were maintained in a growth chamber for 12 days at 23° C. and 70% relative humidity. Each test unit was then visually assessed for insect mortality.

For orientation: mortality means the share of the test organisms that died. The low end stands for a weak lethal effect, the high end for a strong lethal effect.

Turning to `CCC#CCn1nnc(-c2ccnc(OC)c2)n1` [Compound 236, 2-Methoxy-4-[2-(2-pentyn-1-yl)-2H-tetrazol-5-yl]pyridine], the mortality at 50 ppm in test [1] and in test [3] was not below 80% throughout. The mortality at 250 ppm in test [2] is not below 80%.

Turning to `CCC#CCn1nnc(-c2ccsc2)n1` [Compound 129], in test [3], the mortality at 250 ppm is not below 80%.

`CCC#CCn1ncc(-c2ccc(C(F)(F)F)cn2)n1` [Compound 124, 2-[2-(2-Pentyn-1-yl)-2H-1,2,3-triazol-4-yl]-5-(trifluoromethyl)pyridine]: the mortality at 50 ppm in test [1], in test [2] and in test [3] was not below 80% in each case.

As for `CCC#CCn1ncc(-c2ccc(OC(F)(F)F)nc2)n1` [Compound 207, 5-[2-(2-Pentyn-1-yl)-2H-1,2,3-triazol-4-yl]-2-(trifluoromethoxy)pyridine], the mortality at 50 ppm in test [1], in test [2] and in test [3] was not below 80% each time.

Take `CCC#CCn1cc(-c2cncc(C(F)(F)F)c2)nn1` [Compound 205]: the mortality at 250 ppm in test [1] and in test [3] was not below 80% in each case.

Regarding `CCC#CCn1nnc(-c2ccc(C(F)(F)F)cn2)n1` [Compound 122], the mortality at 250 ppm in test [1] was not below 80%.

Regarding `CCC#CCn1nnc(-c2ccc(Cl)cc2)n1` [Compound 60, 5-(4-chlorophenyl)-2-(pent-2-yn-1-yl)-1,2,3,4-tetrazole], the mortality at 250 ppm in test [2] is not below 80%. Besides, the mortality at 50 ppm in test [3] was not below 80%.

For the compound `CCC#CCn1ncc(-c2cccc(C#N)n2)n1` [Compound 250], the mortality at 50 ppm in test [1] and in test [3] was not below 80% in each case.

In test [3], `CCC#CCn1ncc(-c2cncc(C#N)c2)n1` [Compound 232] registered a mortality at 50 ppm not below 80%.

As for `CCC#CCn1cc(-c2ccccc2)cn1` [Compound 114], the mortality at 250 ppm in test [1] and in test [3] was not below 80% throughout.

In turn, `CCC#CCn1ncc(-c2cc(OC)ccn2)n1` [Compound 234] came in with a mortality at 250 ppm in test [3] not below 80%.

Compound `CCC#CCn1ncc(-c2cccc(OC)n2)n1` [Compound 237] showed a mortality at 50 ppm in test [1] not below 80%. The compound also had a mortality at 250 ppm in test [3] not below 80%.

Regarding `CCC#CCn1cc(-c2cccc(C(F)(F)F)c2)nn1` [Compound 3, 1-(2-Pentyn-1-yl)-4-[3-(trifluoromethyl)phenyl]-1H-1,2,3-triazole], in test [1], the mortality at 50 ppm is not below 80%.

In test [1], `CCC#CCn1cc(-c2cc(C(F)(F)F)ccn2)nn1` [Compound 208] displayed a mortality at 50 ppm not below 80%. In test [3], this compound returned a mortality at 250 ppm not below 80%.

`CCC#CCn1cc(-c2ccc(Cl)nc2)nn1` [Compound 156]: in test [3], the mortality at 250 ppm was not below 80%.

On to `CCC#CCn1cc(-c2cccc(C#N)n2)nn1` [Compound 249], for which the mortality at 250 ppm in test [3] was not below 80%.

`CCC#CCn1ncc(-c2cncc(OC)c2)n1` [Compound 252]: the mortality at 250 ppm in test [3] is not below 80%.

`CCC#CCn1cc(-c2cncc(OC)c2)nn1` [Compound 255] registered a mortality at 250 ppm in test [1] not below 80%.

In the case of `CCC#CCn1nnc(-c2ccc(C(F)(F)F)cc2)n1` [Compound 64, 2-(2-Pentyn-1-yl)-5-[4-(trifluoromethyl)phenyl]-2H-tetrazole], the mortality at 10 ppm in test [1] and in test [3] was not below 80% throughout. Besides, the mortality at 50 ppm in test [2] was not below 80%.

In the case of `CCC#CCn1cc(-c2ccnc(C(F)(F)F)c2)nn1` [Compound 198], the mortality at 250 ppm in test [1] and in test [3] was not below 80% each time.

In the case of `CCC#CCn1nnc(-c2cnc3ccccc3c2)n1` [Compound 169], the mortality at 250 ppm in test [1] is not below 80%. In test [3], this compound gave a mortality at 50 ppm not below 80%.

For the compound `CCC#CCn1cc(-c2cncc(F)c2)nn1` [Compound 154], the mortality at 250 ppm in test [1] and in test [3] was not below 80% each time.

Turning to `CCC#CCn1cc(-c2ccc(C(F)(F)F)cn2)nn1` [Compound 123, 2-[1-(2-Pentyn-1-yl)-1H-1,2,3-triazol-4-yl]-5-(trifluoromethyl)pyridine], the mortality at 50 ppm in test [1] and in test [3] was not below 80% throughout.

`CCC#CCn1nnc(-c2cc(C(F)(F)F)ccn2)n1` [Compound 177] returned a mortality at 50 ppm in test [3] not below 80%.

As for `CCC#CCn1ncc(-c2cc(C(F)(F)F)ccn2)n1` [Compound 203], the mortality at 250 ppm in test [1] and in test [2] was not below 80% in each case. The compound also showed a mortality at 50 ppm in test [3] not below 80%.

As to `CCC#CCn1cc(-c2cccc(C(F)(F)F)n2)nn1` [Compound 212], in test [1], the mortality at 250 ppm is not below 80%.

Consider `CCC#CCn1nnc(-c2ccc3ccccc3c2)n1` [Compound 168], for which the mortality at 50 ppm in test [1] and in test [3] was not below 80% each time.

`CCC#CCn1ncc(-c2ccc(F)cn2)n1` [Compound 150]: the mortality at 50 ppm in test [1] and in test [3] was not below 80% each time. This compound also showed a mortality at 250 ppm in test [2] not below 80%.

Consider `CCC#CCn1ncc(-c2ccnc(C#N)c2)n1` [Compound 219], for which, in test [3], the mortality at 50 ppm was not below 80%.

In test [1], `CCC#CCn1nnc(-c2ccnc(C(F)(F)F)c2)n1` [Compound 188] yielded a mortality at 10 ppm not below 80%. In addition, the mortality at 250 ppm in test [2] and in test [3] was not below 80% in each case. Moreover, in test [3], the mortality at 50 ppm was not below 80%.

Take `CCC#CCn1ncc(-c2cccc(C(F)(F)F)n2)n1` [Compound 213]: the mortality at 250 ppm in test [1] and in test [2] was not below 80% throughout. The compound also gave a mortality at 50 ppm in test [3] not below 80%.

In turn, `CCC#CCn1cc(-c2cncc(C#N)c2)nn1` [Compound 233] yielded a mortality at 250 ppm in test [3] not below 80%.

In turn, `CCC#CCn1nnc(-c2ccnc(C#N)c2)n1` [Compound 222] came in with a mortality at 50 ppm in test [3] not below 80%.

The compound `CCC#CCn1cc(-c2ccc(C(F)(F)F)nc2)nn1` [Compound 125] gave a mortality at 250 ppm in test [1] not below 80%.

The compound `CCC#CCn1cc(-c2ccc(OC(F)(F)F)nc2)nn1` [Compound 206] registered a mortality at 250 ppm in test [1] not below 80%.

Regarding `CCC#CCn1nnc(-c2cc3ccccc3o2)n1` [Compound 194], in test [1], the mortality at 250 ppm was not below 80%. The mortality at 50 ppm in test [3] is not below 80%.

As for `COCC#CCn1ncc(-c2ccc(C(F)(F)F)cc2)n1` [Compound 299], in test [4], the mortality at 250 ppm is not below 50%.

Regarding `CCC#CCn1nnc(-c2cc(C#N)ccn2)n1` [Compound 303], the mortality at 250 ppm in test [3] was not below 80%.

With `CCC#CCn1ncc(-c2cncc(C(F)(F)F)c2)n1` [Compound 204, 3-[2-(2-Pentyn-1-yl)-2H-1,2,3-triazol-4-yl]-5-(trifluoromethyl)pyridine], the mortality at 50 ppm in test [1] and in test [2] was not below 80% throughout. This compound also had a mortality at 10 ppm in test [3] not below 80%.

Regarding `CCC#CCn1ncc(-c2ccnc(C(F)(F)F)c2)n1` [Compound 197], the mortality at 50 ppm in test [1] and in test [3] was not below 80% each time.

Take `CCC#CCn1ncc(-c2cc(F)cc(C#N)c2)n1` [Compound 175, 3-Fluoro-5-[2-(2-pentyn-1-yl)-2H-1,2,3-triazol-4-yl]benzonitrile]: the mortality at 50 ppm in test [1] and in test [3] was not below 80% throughout.

For `CCC#CCn1cc(-c2ccc(F)cn2)nn1` [Compound 149], the mortality at 50 ppm in test [1] was not below 80%. The compound also displayed a mortality at 250 ppm in test [3] not below 80%.

As for `CCC#CCn1ncc(-c2ccc(C(F)(F)F)nc2)n1` [Compound 126, 5-[2-(2-Pentyn-1-yl)-2H-1,2,3-triazol-4-yl]-2-(trifluoromethyl)pyridine], the mortality at 10 ppm in test [1] and in test [3] was not below 80% throughout. Also, the mortality at 50 ppm in test [2] is not below 80%.

Consider `CCC#CCn1nnc(-c2cccs2)n1` [Compound 130], for which, in test [3], the mortality at 250 ppm is not below 80%.

In test [3], `CCC#CCn1nnc(-c2cc(OC)ccn2)n1` [Compound 223] had a mortality at 250 ppm not below 80%.

Regarding `CCC#CCn1nnc(-c2cccc(OC)n2)n1` [Compound 251], the mortality at 250 ppm in test [1] and in test [3] was not below 80% throughout.
